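Interpolation was linear, between the two tested concentrations surrounding the appropriate level; five concentrations were tested over 48 hours in 96-well plates. The concentration for 50% growth inhibition is given as GI50. TGI: total growth inhibition.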
Key:
Assay in all cases: growth of human tumour cells (NCI), 48 h
EKVX NSCLC = test system: EKVX NSCLC
LOX IMVI melanoma = test system: LOX IMVI melanoma
KM12 colon = test system: KM12 colon
SNB-19 CNS = test system: SNB-19 CNS
M14 melanoma = test system: M14 melanoma
BT-549 breast = test system: BT-549 breast
SF-295 CNS = test system: SF-295 CNS
NCI-H460 lung = test system: NCI-H460 lung
NCI-H226 lung = test system: NCI-H226 lung
SK-MEL-28 melanoma = test system: SK-MEL-28 melanoma

Compound	GI50 (EKVX NSCLC)	TGI (EKVX NSCLC)	GI50 (LOX IMVI melanoma)	TGI (LOX IMVI melanoma)	GI50 (KM12 colon)	TGI (KM12 colon)	GI50 (SNB-19 CNS)	TGI (SNB-19 CNS)	GI50 (M14 melanoma)	TGI (M14 melanoma)	GI50 (BT-549 breast)	TGI (BT-549 breast)	GI50 (SF-295 CNS)	TGI (SF-295 CNS)	GI50 (NCI-H460 lung)	TGI (NCI-H460 lung)	TGI (NCI-H226 lung)	TGI (SK-MEL-28 melanoma)	GI50 (NCI-H226 lung)
CCOC(=O)c1cc(/C(=N\O)c2cc(OC)c(OC)c(OC)c2)n2cc(C)cc(C)c12	3.83 µM	> 100 µM	2.4 µM	7.68 µM	2.31 µM	> 100 µM	4.57 µM	> 100 µM	2.08 µM	6.45 µM	4.39 µM	> 100 µM	1.72 µM	5.25 µM	2.76 µM	7.64 µM	–	–	–
CCOC(=O)CN=c1nc(SC)sc2c(C(=O)OCC)nc(Sc3ccccc3)n12	–	> 100 µM	–	> 100 µM	–	> 100 µM	–	–	–	> 100 µM	–	–	–	–	–	–	> 100 µM	–	–
O=C(O)CN(c1ccccc1)S(=O)(=O)c1ccccc1[N+](=O)[O-]	–	> 100 µM	–	> 100 µM	–	> 100 µM	–	> 100 µM	–	> 100 µM	–	–	–	> 100 µM	–	> 100 µM	> 100 µM	> 100 µM	–
CCOC(=O)NC(=O)c1cn(CCOCCOC(=O)NCCCCCCNC(=O)OCCOCCn2cc(C(=O)NC(=O)OCC)c(=O)[nH]c2=O)c(=O)[nH]c1=O	–	> 100 µM	–	> 100 µM	–	> 100 µM	–	> 100 µM	–	> 100 µM	–	–	–	> 100 µM	–	> 100 µM	–	> 100 µM	–
COc1c2c(cc3nc4ccccc4nc13)CCC(C(C)(C)O)C2 (centres undefined)	–	> 100 µM	–	> 100 µM	–	> 100 µM	–	> 100 µM	–	> 100 µM	–	–	–	> 100 µM	–	> 100 µM	> 100 µM	> 100 µM	–
Cc1cc(C)nc(NS(=O)(=O)c2ccc(Nc3c4ccccc4nc4c(C(=O)Nc5ccc(S(=O)(=O)Nc6cc(C)on6)cc5)cccc34)cc2)n1	–	66.7 µM	–	37.1 µM	–	35.7 µM	–	52.1 µM	–	41.7 µM	–	–	–	63.1 µM	–	61 µM	46.5 µM	52.3 µM	–
CN(C)CCNC(=O)c1cccc(C(=O)Nc2ccccc2)c1[N+](=O)[O-]	–	–	–	–	–	> 100 µM	–	> 100 µM	–	> 100 µM	–	> 100 µM	–	> 100 µM	–	> 100 µM	> 100 µM	> 100 µM	–
CN(C)CC/C(=N\Nc1c(Cl)cccc1Cl)c1ccccc1	–	94.7 µM	–	31 µM	–	34.8 µM	–	> 100 µM	–	34.2 µM	–	–	–	35.9 µM	–	29.9 µM	–	39.7 µM	–
Cc1cccc(NC(=O)C(=O)Cc2nc3ccccc3[nH]c2=O)c1C	–	> 100 µM	–	> 100 µM	–	> 100 µM	–	> 100 µM	–	> 100 µM	–	–	–	> 100 µM	–	> 100 µM	> 100 µM	> 100 µM	–
CC(C)=CCC/C(=C/CC/C(C)=C/CCc1ccoc1)C(=O)O	–	> 100 µM	–	> 100 µM	–	> 100 µM	–	> 100 µM	–	> 100 µM	–	–	–	> 100 µM	–	> 100 µM	> 100 µM	> 100 µM	–
CC[O-].CC[O-].O=C1c2ccccc2C(=O)c2c(O)ccc([O-])c21.O=C1c2ccccc2C(=O)c2c(O)ccc([O-])c21.[Ti+4]	–	> 100 µM	–	> 100 µM	–	> 100 µM	–	> 100 µM	–	> 100 µM	–	–	–	> 100 µM	–	> 100 µM	> 100 µM	> 100 µM	> 100 µM
CC1=C(C)CC2(CCCCC2=O)S(=O)C1 (centres undefined)	–	> 100 µM	–	> 100 µM	–	> 100 µM	–	> 100 µM	–	> 100 µM	–	–	–	> 100 µM	–	> 100 µM	> 100 µM	> 100 µM	–

From PubChem BioAssay (NCI)
